Laboratory results published in US20220160659A1, “PHARMACEUTICAL COMPOSITION COMPRISING a-GALACTOSYLCERAMIDE AND/OR DENDRITIC CELLS PULSED WITH a-GALACTOSYLCERAMIDE” (National University Corporation Hokkaido University, priority 2019, published 2022).

Experiments:
[1] = test system: early breast cancer patient treated with an anthracycline anticancer drug; settings: cited from earlier work
[2] = test system: pediatric cancer patient having drug-induced myocardial dysfunction caused by an anthracycline anticancer drug; settings: cited from earlier work
[3] = test system: activated, M1 and M2 macrophage markers in myocardial tissues; test: Macrophage marker gene expression in myocardial tissue, quantitative real-time RT-PCR; type: in vivo, C57BL/6 mice; settings: 14 days after DOX, FIG. 6
Method: Eight-week-old male C57BL/6 mice were divided into three groups (Control group, DOX group, and DOX+α-GC group). α-GalCer (KRN7000 (Funakoshi Co., Ltd.); 0.1 μg/g weight) was intraperitoneally administered to the DOX+α-GC group, while PBS was intraperitoneally administered to the Control group and the DOX group. Four days after the administration, doxorubicin (Doxorubicin hydrochloride, D1515 (SIGMA-ALDRICH); 20 mg/kg weight) was intraperitoneally administered to the DOX group and the DOX+α-GC group, while Vehicle (PBS) was intraperitoneally administered to the Control group. Three days after the administration of DOX or PBS, α-GalCer (0.1 μg/g weight) was intraperitoneally administered to the DOX+α-GC group, while PBS was intraperitoneally administered to the Control group and the DOX group. Fourteen days after the administration of DOX or PBS, echocardiography was performed for mice of each of the groups to evaluate their cardiac functions, and subsequently, the hearts of the mice were collected to perform pathological evaluation of myocardial tissue fibrosis and evaluation of inflammatory cytokine expression by using a quantitative real-time RT-PCR method. FIG. 1 illustrates the test schedules. Furthermore, using the above-mentioned cDNA as a template, a quantitative real-time RT-PCR was performed by the TaqMan method using the following primer sets and probes (all of them from Applied Biosystems) to evaluate the expression of CD11c and MHC II (activated macrophage markers), MCP-1, iNOS, and IL-1β (M1 macrophage markers), and […] and Arginase 1 (Arg1) (M2 macrophage markers). GAPDH was used as an endogenous control. • CD11c: TaqMan Gene Expression Assays, Mm00498701 ml • MHC II (H2-A1): TaqMan Gene Expression Assays, Mm00439211 ml • MCP1 (CCL2): TaqMan Gene Expression Assays, Mm00441242 ml • iNOS (NOS2): TaqMan Gene Expression Assays, Mm00440502 ml • IL-1β: TaqMan Gene Expression Assays, Mm00434228 ml • […]: TaqMan Gene Expression Assays, Mm00445109 ml • Arg1: TaqMan Gene Expression Assays, Mm00475988 ml • GAPDH: Mouse GAPD (20X), Probe dye VIC-MGB

[4] = test system: myocardial dysfunction model mice induced by doxorubicin; test: Myocardial tissue fibrosis, Picro-sirius Red staining, after α-GalCer; type: in vivo, C57BL/6 mice; settings: α-GalCer 0.1 μg/g i.p. before and after doxorubicin 20 mg/kg; heart collected 14 days after DOX; vs DOX group; FIG. 3
Method: Eight-week-old male C57BL/6 mice were divided into three groups (Control group, DOX group, and DOX+α-GC group). α-GalCer (KRN7000 (Funakoshi Co., Ltd.); 0.1 μg/g weight) was intraperitoneally administered to the DOX+α-GC group, while PBS was intraperitoneally administered to the Control group and the DOX group. Four days after the administration, doxorubicin (Doxorubicin hydrochloride, D1515 (SIGMA-ALDRICH); 20 mg/kg weight) was intraperitoneally administered to the DOX group and the DOX+α-GC group, while Vehicle (PBS) was intraperitoneally administered to the Control group. […] Fourteen days after the administration of DOX or PBS, echocardiography was performed for mice of each of the groups to evaluate their cardiac functions, and subsequently, the hearts of the mice were collected to perform pathological evaluation of myocardial tissue fibrosis and evaluation of inflammatory cytokine expression by using a quantitative real-time RT-PCR method. […]
Myocardial tissue fibrosis was evaluated by fixing a frozen section sample of myocardial tissue with 10% formalin and then staining the sample with 3% Picro-sirius Red (100 ml of Van Gieson Solution P (FUJIFILM Wako Pure Chemical Corporation)+3 ml of 1% Sirius Red (MUTO PURE CHEMICALS CO., LTD.)) to detect collagen. […]

[5] = test system: inflammatory cytokine expression in myocardial tissues; test: Inflammatory cytokine gene expression in myocardial tissue, quantitative real-time RT-PCR; type: in vivo, C57BL/6 mice; settings: 14 days after DOX
Method: (§1) Eight-week-old male C57BL/6 mice were divided into three groups (Control group, DOX group, and DOX+α-GC group). α-GalCer (KRN7000 (Funakoshi Co., Ltd.); 0.1 μg/g weight) was intraperitoneally administered to the DOX+α-GC group, while PBS was intraperitoneally administered to the Control group and the DOX group. Four days after the administration, doxorubicin (Doxorubicin hydrochloride, D1515 (SIGMA-ALDRICH); 20 mg/kg weight) was intraperitoneally administered to the DOX group and the DOX+α-GC group, while Vehicle (PBS) was intraperitoneally administered to the Control group. Three days after the administration of DOX or PBS, α-GalCer (0.1 μg/g weight) was intraperitoneally administered to the DOX+α-GC group, while PBS was intraperitoneally administered to the Control group and the DOX group. Fourteen days after the administration of DOX or PBS, echocardiography was performed for mice of each of the groups to evaluate their cardiac functions, and subsequently, the hearts of the mice were collected to perform pathological evaluation of myocardial tissue fibrosis and evaluation of inflammatory cytokine expression by using a quantitative real-time RT-PCR method. FIG. 1 illustrates the test schedules.
Furthermore, total RNA was extracted from myocardial tissues using QuickGene-810 (FUJIFILM Corporation), and subjected to a reverse transcription reaction using a cDNA reverse transcription kit (Applied Biosystems) to prepare cDNA. Using this cDNA as a template, a quantitative real-time RT-PCR was performed by the TaqMan method to evaluate the expression of inflammatory cytokine. Primer sets and probes used (all of them from Applied Biosystems) were as follows. GAPDH was used as an endogenous control. • IFN-γ: TaqMan Gene Expression Assays, Mm01168134 ml • TNF-α: TaqMan Gene Expression Assays, Mm00443258 ml • IL-1β: TaqMan Gene Expression Assays, Mm00434228 ml • TGF-β1: TaqMan Gene Expression Assays, Mm01178820 ml • IL-4: TaqMan Gene Expression Assays, Mm00445259 ml • IL-10: TaqMan Gene Expression Assays, Mm01288386 ml • GAPDH: Mouse GAPD (20X), Probe dye VIC-MGB

[6] = test system: post-myocardial infarction heart failure; settings: ischemic heart failure; earlier work of the inventors; cited from earlier work
[7] = test system: myocardial dysfunction model mice induced by doxorubicin; test: Echocardiography (left ventricular fractional shortening) after α-GalCer in doxorubicin myocardial dysfunction model; type: in vivo, C57BL/6 mice; settings: α-GalCer 0.1 μg/g i.p. 4 days before and 3 days after doxorubicin 20 mg/kg i.p.; echocardiography 14 days after DOX; vs DOX group; FIG. 2
Method: as §1
The echocardiography was carried out by using an ultrasound recording device EUB-8000 (Hitachi, Ltd.) under anesthesia with pentobarbital. […]

[8] = comparison between the three groups

## COCCc1ccc(OCC(O)CNC(C)C)cc1 (stereo not shown) [metoprolol]
[1]
  decrease in left ventricular ejection fraction: did not prevent the decrease in left ventricular ejection fraction

## CCOC(=O)[C@H](CCc1ccccc1)N[C@@H](C)C(=O)N1CCC[C@H]1C(=O)O [enalapril]
[2]
  left ventricular end-systolic wall stress: reduced a left ventricular end-systolic wall stress
  other important parameters reflecting a motor ability and the like: failed to improve other important parameters reflecting a motor ability and the like

## CCCCCCCCCCCCCCCCCCCCCCCCCC(=O)N[C@@H](CO[C@H]1O[C@H](CO)[C@H](O)[C@H](O)[C@H]1O)[C@H](O)[C@H](O)CCCCCCCCCCCCCC [α-GalCer, α-galactosylceramide]
[3]; DOX+α-GC group vs other groups
  expression of Arg1 (M2 macrophage marker) in myocardial tissue: more enhanced in the DOX+α-GC group than in other groups
  expression of CD11c (activated macrophage marker) in myocardial tissue: more enhanced in the DOX+α-GC group than in other groups
  expression of MHC II (activated macrophage marker) in myocardial tissue: more enhanced in the DOX+α-GC group than in other groups
  expression of Retnla (M2 macrophage marker) in myocardial tissue: more enhanced in the DOX+α-GC group than in other groups
[3]; [8]
  expression of IL-1β (M1 macrophage marker) in myocardial tissue: any significant difference in the expression of MCP-1, iNOS, and IL-1β as M1 macrophage markers between the three groups was not observed
  expression of MCP-1 (M1 macrophage marker) in myocardial tissue: any significant difference in the expression of MCP-1, iNOS, and IL-1β as M1 macrophage markers between the three groups was not observed
  expression of iNOS (M1 macrophage marker) in myocardial tissue: any significant difference in the expression of MCP-1, iNOS, and IL-1β as M1 macrophage markers between the three groups was not observed
[4]
  myocardial tissue fibrosis (ratio of stained area): the progression as observed in the DOX group was significantly suppressed
[5]; DOX+α-GC group vs Control and DOX groups, FIG. 5
  expression of IFN-γ in myocardial tissue: tended to be more enhanced in the DOX+α-GC group than in other groups
[5]; DOX+α-GC group vs Control and DOX groups, GAPDH endogenous control, FIG. 4, FIG. 5
  expression of interleukin-4 (IL-4) in myocardial tissue: tended to be more enhanced in the DOX+α-GC group than in other groups
[5]; comparison between Control, DOX and DOX+α-GC groups, FIG. 5
  expression of other cytokines such as IL-10 in myocardial tissue: any significant difference in the expression of other cytokines such as IL-10 between the three groups was not observed
[6]
  therapeutic effect on post-myocardial infarction heart failure: confirmed therapeutic effects
[7]
  cardiac function, left ventricular fractional shortening (% FS): did not show the decrease in cardiac function as observed in the DOX group
